The record followed here is patent US11786528B2, “Pyrazolopyrimidine compounds as adenosine receptor antagonists” (EXSCIENTIA LTD., priority 2018, dated 2023).

Each structure is given as a SMILES string.

As a reminder, the IC50 is the concentration needed to halve the response being measured. A higher IC50 goes with lower potency. In general, EC50 refers to the concentration giving half of the maximal effect. A higher EC50 goes with weaker potency.

The target of assay [1] is human adenosine receptor sub-type A2a (wild type) (Homo sapiens (Human), UniProt P29274). The experiment in a line: Affinity for human adenosine A2a receptor by surface plasmon resonance (SPR). Type of assay: binding. The method, then:
(§1) Affinity for the human adenosine receptor sub-types (A2a, A2b, A1 and A3) was determined by surface plasmon resonance (SPR) using published methodologies (see below for further details).
(§2) Affinity for the human adenosine receptor sub-types (A2a, A2b, A1 and A3) was determined by SPR as described in Aristotelous, T., et al, Methods in Enzymology (2015), Volume 556, Chapter 23, pages 499-525 and Congreve, M., et al, J Med Chem (2012), Vol. 55, pages 1898-1903. The method used was analogous to the method used in Congreve, M., et al (see supplementary page S10) for the A2a receptor, but the wild type receptor was used rather than the proprietary StaR form.
(In general: Surface plasmon resonance follows binding to a sensor surface in real time, without labels.)

Assay [2] has as its target human A2a receptors (HEK 293 transfected) (Homo sapiens (Human), UniProt P29274). The assay can be described thus: Inhibition of cAMP release in HEK-A2aR cells (HTRF, LANCE Ultra cAMP). It counts as cell-based. Particulars: 3 nM NECA, 10 min. The method, then: Functional activity was measured by inhibition of cAMP release in HEK cells (see below for further details).
To screen A2a receptor inhibitors by HTRF technology, about 500 HEK-A2aR cells (HEK 293 transfected with human A2a receptors) were treated with inhibitors in presence of stimulation buffer (1×HBSS, 5 mM HEPES, 0.1% BSA stabilizer, pH 7.4) supplemented with 30 μM phosphodiesterase inhibitor Rolipram (to prevent cAMP degradation). This stimulation was immediately followed by treatment with 3 nM standard A2aR agonist (NECA) for 10 min under gentle shaking at room temperature. After that, inhibition of cAMP release was determined directly using LANCE Ultra cAMP assay (Perkin Elmer TRF0263).
All analysis was performed using GraphPad Prism 7.0 (GraphPad Software, San Diego, USA). Results are given, as EC50 (M).
For orientation: TR-FRET usually uses a lanthanide donor and a delayed reading to cut background.

In assay [3] the target is human adenosine receptor sub-type A2b (Homo sapiens (Human), UniProt P29275). The assay can be described thus: Affinity for human adenosine A2b receptor by SPR. Type of assay: binding. As for the experimental part:
as §1, §2

Assay [4] addresses human adenosine receptor sub-type A1 (Homo sapiens (Human), UniProt P30542). The experiment in a line: Affinity for human adenosine A1 receptor by SPR. Type of assay: binding. As for the experimental part: as §1, §2
Assay [5] concerns the target human adenosine receptor sub-type A3 (Homo sapiens (Human), UniProt P0DMS8). The experiment in a line: Affinity for human adenosine A3 receptor by SPR. It counts as binding. The method, then:
as §1, §2

Assay [6] has as its system human primary CD3+ T-cells. The assay can be described thus: Recovery of 2-chloroadenosine (CADO) mediated inhibition of IL-2 production. Type of assay: cell-based. Particulars: T-cell, two donors, 10 μM CADO, 48 hours. The method, then:
CD3^+ cells were isolated from Buffy Coat of two human healthy donors (Donor 1: D1 and Donor 2: D2) with the RosetteSep technology (RosetteSep Human T cell enrichment cocktail from Stem Cell) according to provider's instructions. T-cells were then stimulated with anti-CD3 mAb, anti-CD28 mAb coated beads (Dynabeads® Human T-Activator CD3/CD28 (Thermo Fisher Scientific) in a complete medium containing 10% fetal bovine serum in the presence or not of Example 1. After one hour incubation time, CADO (2-chloroadenosine, Abcam Biochemical) at 10 μM was added to the culture. After 48 hours of stimulation at 37° C., 5% CO2 and a short centrifugation, culture supernatant were harvested and stored at −80° C. for further evaluation by ELISA. In the meantime, a staining with a living dye was performed to access compound-induced toxicity. Il-2 measurement was performed by using the Human IL-2 Uncoated ELISA (Invitrogen) following data sheet instructions. To access the percentage of IL-2 inhibition induced by 10 μM CADO, the calculation used control condition (cells stimulated in basal condition). Then to access compound-induced recovery of IL-2 production, each dose was normalized following this formula: ([sample]−[mean of CADO])/([mean of basal condition]−[mean of CADO])*100. Compounds normalization was performed per plate. […]

The subject of the next assay is MCA-205 tumor. The experiment in a line: Inhibition of the growth of MCA-205 tumor in syngeneic mice. It counts as in vivo, mouse. As to conditions: 30 mg/kg BID oral gavage, 11 consecutive days from day 10; day 19 to study termination; p<0.005 and p<0.001. As for the experimental part:
C57/BI6JRjJL female mice (9-10 weeks old from Janvier Laboratories) were engrafted in subcutaneous location with 0.25.10^6 MCA-205 cells (suspended in 100% PBS buffer, fibrosarcoma cell line kindly provided by Dr. J. Stagg, Universite de Montréal, Canada). Mice were then kept in a post-operative cabinet at 28° C. until complete recovery.
Randomization of mice was performed on day 9 post-cell inoculation, after measurement of tumour volumes using a digital caliper. Assuming an ovoid form of the tumour, the following formula was applied: Volume=0.52×(width)^2×length. Width and length were expressed in mm, volume in mm^3. Twenty-six female mice were allocated in two groups: vehicle and Example 1 (n=13 mice/group). Oral gavage with vehicle (control group, PEG200/Soluplus 10% in Citrate Buffer pH3 at 50 mM (50%/50% w/v)) or Example 1 solubilized in the vehicle at 30 mg/kg in BID (twice daily administrations by oral gavage with a volume of administration of 5 ml/kg) was initiated 10 days after cell inoculation and continued for 11 consecutive days.

[7] abbreviates: from SPR IC50 values, rounded to 2 significant figures.

Sequence of human adenosine receptor sub-type A1 (P30542 whole entry): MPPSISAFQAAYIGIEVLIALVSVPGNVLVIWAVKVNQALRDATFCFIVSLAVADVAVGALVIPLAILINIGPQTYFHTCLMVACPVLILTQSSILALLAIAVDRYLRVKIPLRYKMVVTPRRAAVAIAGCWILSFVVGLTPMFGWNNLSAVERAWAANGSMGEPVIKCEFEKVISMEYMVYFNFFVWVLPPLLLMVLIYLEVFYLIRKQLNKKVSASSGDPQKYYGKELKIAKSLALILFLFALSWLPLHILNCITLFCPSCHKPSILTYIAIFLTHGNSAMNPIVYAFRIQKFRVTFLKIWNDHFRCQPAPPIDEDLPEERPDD
Sequence of human adenosine receptor sub-type A2b (P29275 whole entry): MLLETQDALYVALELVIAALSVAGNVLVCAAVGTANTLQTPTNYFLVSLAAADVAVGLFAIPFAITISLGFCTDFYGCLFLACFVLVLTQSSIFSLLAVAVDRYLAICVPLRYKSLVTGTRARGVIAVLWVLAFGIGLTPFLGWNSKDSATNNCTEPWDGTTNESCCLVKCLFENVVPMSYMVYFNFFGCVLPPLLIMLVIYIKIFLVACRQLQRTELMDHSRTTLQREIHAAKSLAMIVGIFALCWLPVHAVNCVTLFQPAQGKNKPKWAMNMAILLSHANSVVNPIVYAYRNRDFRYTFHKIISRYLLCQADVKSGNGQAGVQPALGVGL
Sequence of human adenosine receptor sub-type A3 (P0DMS8 whole entry): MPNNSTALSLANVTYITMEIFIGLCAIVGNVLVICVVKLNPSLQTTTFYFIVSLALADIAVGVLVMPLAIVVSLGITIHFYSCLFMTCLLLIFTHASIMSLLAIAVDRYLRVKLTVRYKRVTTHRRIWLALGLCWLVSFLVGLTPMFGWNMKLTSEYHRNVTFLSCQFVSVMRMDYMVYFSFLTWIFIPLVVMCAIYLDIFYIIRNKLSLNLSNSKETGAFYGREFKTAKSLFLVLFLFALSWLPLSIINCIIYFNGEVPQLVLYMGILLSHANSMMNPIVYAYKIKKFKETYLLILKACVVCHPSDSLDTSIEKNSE
Sequence of human A2a receptors (HEK 293 transfected) (P29274 whole entry): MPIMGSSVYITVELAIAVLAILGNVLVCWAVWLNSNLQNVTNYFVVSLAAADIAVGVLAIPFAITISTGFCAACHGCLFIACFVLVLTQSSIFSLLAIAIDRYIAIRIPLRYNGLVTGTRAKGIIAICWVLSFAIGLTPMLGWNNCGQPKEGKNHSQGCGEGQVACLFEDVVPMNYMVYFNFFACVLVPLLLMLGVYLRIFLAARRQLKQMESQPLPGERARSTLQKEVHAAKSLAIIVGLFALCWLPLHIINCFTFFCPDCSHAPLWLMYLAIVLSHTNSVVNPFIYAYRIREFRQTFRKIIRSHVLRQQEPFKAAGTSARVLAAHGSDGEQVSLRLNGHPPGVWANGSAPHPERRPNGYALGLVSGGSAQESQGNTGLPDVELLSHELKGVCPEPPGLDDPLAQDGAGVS
Sequence of human adenosine receptor sub-type A2a (wild type) (P29274 whole entry): as above

In the case of `Cc1cccc(Cn2cc3c(N)nc(-c4ccsn4)nc3n2)c1` [Example 1, 2-[(3-methylphenyl)methyl]-6-(1,2-thiazol-3-yl)-2H-pyrazolo[3,4-d]pyrimidin-4-amine], the 50% inhibitory concentration (IC50) worked out at 3.5 nM in assay [1]; 1500 nM in assay [3] (SPR, human A2b receptor); 3100 nM in assay [4] (SPR, human A1 receptor); 35800 nM in assay [5] (SPR, human A3 receptor). The EC50 stood at 4 nM in assay [2] and 560 nM in assay [6]. For the same molecule, in assay [3] (setting [7]), the “Relative selectivity for A2a v. A2b” value was determined as 430. Further, the “Relative selectivity for A2a v. A1” value in assay [4] (setting [7]) is listed as 890. In addition, the “Relative selectivity for A2a v. A3” value in assay [5] (setting [7]) is given as 10000. Also, in the assay on MCA-205 tumor, the mean tumor volume result is reported as “significant inhibition of the mean tumor volume”.
